Source: patent US20140051685A1, “THERAPEUTIC TREATMENT FOR METABOLIC SYNDROME, TYPE 2 DIABETES, OBESITY OR PREDIABETES” (priority 2010, published 2014)

What was measured:
[1] = test system: female ob/ob obese diabetic mice; experiment: Bromocriptine plus GBR 12909 in ob/ob mice; type: in vivo; conditions: BC 10 mg/kg, GBR 12909 20 mg/kg, daily 14 days, relative to vehicle, FIG. 10
Procedure: The effects of adding GBR (a selective dopamine reuptake inhibitor) to bromocriptine (a dopamine D2 receptor agonist that can reduce central norepinephrine neuronal activity) in an effort to circumvent the impact of the D2 receptor agonist effect to reduce endogenous dopamine and to therefore improve metabolic disorders was examined in ob/ob mice treated with either vehicle, bromocriptine (BC) (10 mg/kg), GBR 12909 (20 mg/kg) or bromocriptine (10 mg/kg) plus GBR 12909 (20 mg/kg). Female ob/ob obese diabetic mice were fed standard chow and different groups of animals (n=5-7 group) were treated daily for 14 days with bromocriptine (to reduce norepinephrine neuronal activity) (10 mg/kg), GBR 12909 (to increase dopaminergic neuronal activity) (20 mg/kg) or with bromocriptine (10 mg/kg) plus GBR 12909 (20 mg/kg), or vehicle. […] BC had no effect on blood glucose level.

[2] = test system: mice fed a high fat diet for 20 weeks; experiment: Bromocriptine plus GBR 12909 in mice fed a high fat diet; type: in vivo; conditions: BC 5 mg/kg, GBR 12909 5 mg/kg
Procedure: The effects of adding GBR (a selective dopamine reuptake inhibitor) to bromocriptine (a dopamine D2 receptor agonist that can reduce central norepinephrine neuronal activity) in an effort to circumvent the impact of the D2 receptor agonist effect to reduce endogenous dopamine and to therefore improve metabolic disorders was examined in mice fed a high fat diet for 20 weeks and then treated with either vehicle, bromocriptine (BC) (5 mg/kg), GBR 12909 (5 mg/kg) or bromocriptine (5 mg/kg) plus GBR 12909 (5 mg/kg). […] Again, increasing central dopaminergic neuronal activity and decreasing central norepinephrine neuronal activity simultaneously produces synergistic reductions in metabolic disorders. […] BC alone had no effect on plasma insulin level (FIG. 21).

CC(C)C[C@H]1C(=O)N2CCC[C@H]2[C@]2(O)O[C@](NC(=O)[C@@H]3C=C4c5cccc6[nH]c(Br)c(c56)C[C@H]4N(C)C3)(C(C)C)C(=O)N12 [bromocriptine]
blood glucose level [1]: no effect | plasma insulin level ([2]; FIG. 21): no effect | HOMA-IR (insulin resistance) ([2]; FIG. 22): no significant effect
